Assay results published in the supplement of paper PMC11061612.

Legend:
Test in all cases: Bliss excess, mean over the matrix (fraction); higher = more synergy
[1] = tested on: A375 (Melanoma)
Procedure, shortened: (§1)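 After 24 hours at 37°C and 5% CO2 in 1536-well plates, cells in DMEM/F12 or RPMI plus 10% FBS received two-drug dose matrices for 72 hours. Viability came from CellTiter-Glo 2.0 luminescence and was scaled as inhibition, anchored at 0 by vehicle wells and at 1 by blank wells. Combination Emax is taken as the second-highest inhibition in the matrix, and Bliss excess as the observed combination effect less EA + EB − EA·EB, with EA and EB the single-agent effects.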

[2] = tested on: C32 (Melanoma)
Procedure, shortened: as §1

[3] = tested on: COR-L105 (Lung Adenocarcinoma)
Procedure, shortened: as §1

[4] = tested on: L-363 (Plasma Cell Myeloma)
Procedure, shortened: as §1

[5] = tested on: MDA-MB-175-VII (Breast Carcinoma)
Procedure, shortened: as §1

[6] = tested on: MRK-nu-1 (Breast Carcinoma)
Procedure, shortened: as §1

[7] = tested on: OVKATE (Ovarian Carcinoma)
Procedure, shortened: as §1

[8] = tested on: SW1463 (Colorectal Carcinoma)
Procedure, shortened: as §1

[9] = tested on: C2BBe1 (Colorectal Carcinoma)
Procedure, shortened: as §1

[10] = tested on: Daudi (Burkitt's Lymphoma)
Procedure, shortened: as §1

[11] = tested on: GRANTA-519 (B-Cell Non-Hodgkin's Lymphoma)
Procedure, shortened: as §1

[12] = tested on: HT-1197 (Bladder Carcinoma)
Procedure, shortened: as §1

[13] = tested on: IGROV-1 (Ovarian Carcinoma)
Procedure, shortened: as §1

[14] = tested on: NCI-H1048 (Small Cell Lung Carcinoma)
Procedure, shortened: as §1

[15] = tested on: NCI-H1944 (Lung Adenocarcinoma)
Procedure, shortened: as §1

[16] = tested on: NCI-H2170 (Squamous Cell Lung Carcinoma)
Procedure, shortened: as §1

[17] = tested on: OCI-M1 (Acute Myeloid Leukemia)
Procedure, shortened: as §1

[18] = tested on: SBC-5 (Small Cell Lung Carcinoma)
Procedure, shortened: as §1

[19] = tested on: SK-N-DZ (Neuroblastoma)
Procedure, shortened: as §1

[20] = tested on: TK (B-Cell Non-Hodgkin's Lymphoma)
Procedure, shortened: as §1

Structure (SMILES)	Bliss excess [1]	Bliss excess [2]	Bliss excess [3]	Bliss excess [4]	Bliss excess [5]	Bliss excess [6]	Bliss excess [7]	Bliss excess [8]	Bliss excess [9]	Bliss excess [10]	Bliss excess [11]	Bliss excess [12]	Bliss excess [13]	Bliss excess [14]	Bliss excess [15]	Bliss excess [16]	Bliss excess [17]	Bliss excess [18]	Bliss excess [19]	Bliss excess [20]
C=CCn1c(=O)c2cnc(Nc3ccc(N4CCN(C)CC4)cc3)nc2n1-c1cccc(C(C)(C)O)n1 [AZD1775] + Nc1ccn([C@@H]2O[C@H](CO)[C@@H](O)C2(F)F)c(=O)n1 [Gemcitabine] (first compound max 1 µM, partner max 0.3 µM)	0.0519	-0.0569	-0.0263	0.125	-0.0105	0.045	-0.0681	-0.0109												
CN(CCO)CC[C@H](CSc1ccccc1)Nc1ccc(S(=O)(=O)NC(=O)c2ccc(N3CCC([C@@H](O)c4ccccc4-c4ccc(Cl)cc4)CC3)cc2)cc1S(=O)(=O)C(F)(F)F [AZD4320] + CS(=O)(=O)CCNCc1ccc(-c2ccc3ncnc(Nc4ccc(OCc5cccc(F)c5)c(Cl)c4)c3c2)o1 [Lapatinib] (first compound max 1 µM, 7x7, partner max 10 µM)	0.0275	-0.0269	-0.0212	0.0082	0.0728	-0.0167	-0.0082	0.105												
COc1nnc2ccc(N3CCC(c4ccc(OCCN5CCN(C)C(=O)[C@H]5C)cc4)CC3)nn12 [AZD5153] + CN(CC[C@H](CSC1=CC=CC=C1)NC2=C(C=C(C=C2)S(=O)(=O)NC(=O)C3=CC=C(C=C3)N4CCC(CC4)[C@H](C5=CC=CC=C5C6=CC=C(C=C6)Cl)O)S(=O)(=O)C(F)(F)F)CCO [AZD4320] (first compound max 1 µM, 7x7, partner max 1 µM)	0.0183	0.0176							-0.0521	0.0159	0.0352	0.073	0.0077	0.0831	0.0269	0.0175	-0.0095	-0.0012	-0.0212	-0.0154
Cc1c2c(nn1C)CSCc1cc(n(C)n1)CSc1cc(c3ccccc3c1)OCCCc1c(C(=O)O)n(C)c3c-2c(Cl)ccc13 [AZD5991] + CC(=O)O[C@H]1C(=O)[C@@]2(C)[C@H]([C@H](OC(=O)c3ccccc3)[C@]3(O)C[C@H](OC(=O)[C@H](O)[C@@H](NC(=O)c4ccccc4)c4ccccc4)C(C)=C1C3(C)C)[C@]1(OC(C)=O)CO[C@@H]1C[C@@H]2O [Paclitaxel] (first compound max 1 µM, 7x7, partner max 3 µM)	-0.0149	0.0017	-0.0367	-0.0043	0.102	0.0286	-0.0107	0.0763												
Cc1c2c(nn1C)CSCc1cc(n(C)n1)CSc1cc(c3ccccc3c1)OCCCc1c(C(=O)O)n(C)c3c-2c(Cl)ccc13 [AZD5991] + CS(=O)(=O)CCNCc1ccc(-c2ccc3ncnc(Nc4ccc(OCc5cccc(F)c5)c(Cl)c4)c3c2)o1 [Lapatinib] (first compound max 1 µM, 7x7, partner max 10 µM)	0.0109	-0.0014	-0.0414	0.0132	0.04	0.0112	-0.0552	0.0331												
Cc1c2c(nn1C)CSCc1cc(n(C)n1)CSc1cc(c3ccccc3c1)OCCCc1c(C(=O)O)n(C)c3c-2c(Cl)ccc13 [AZD5991] + C[C@@H]1COCCN1C2=NC(=NC(=C2)C3(CC3)[S@](=N)(=O)C)C4=C5C=CNC5=NC=C4 [AZD6738] (first compound max 1 µM, 7x7, partner max 10 µM)	0.0291	0.0531	-0.0407	-0.0625	0.0187	0.0056	-0.0421	-0.023	-0.0093	0.0874	0.0107	-0.104	0.0449	0.0445		0.0272	0.0061	0.0509	-0.0078	0.0536
C[C@@H]1COCCN1c1cc(C2([S@](C)(=N)=O)CC2)nc(-c2ccnc3[nH]ccc23)n1 [AZD6738] + C1CC(C1)(C(=O)[O-])C(=O)[O-].N.N.[Pt+2] [Carboplatin] (first compound max 10 µM, 7x7, partner max 10 µM)	-0.0113	-0.0133	-0.0272	-0.0089	-0.0024	-0.0127	-0.0642	-0.0446												
C[C@@H]1COCCN1c1cc(C2([S@](C)(=N)=O)CC2)nc(-c2ccnc3[nH]ccc23)n1 [AZD6738] + Nc1ccn([C@@H]2O[C@H](CO)[C@@H](O)C2(F)F)c(=O)n1 [Gemcitabine] (first compound max 10 µM, 7x7, partner max 0.3 µM)	0.0602	-0.0247	0.003	0.0716	-0.0368	-0.0532	-0.0172	-0.0128												
C[C@@H](Nc1cc(F)cc(F)c1)c1cc(C(=O)N(C)C)cc2c(=O)cc(N3CCOCC3)oc12 [AZD8186] + CC(=O)c1c(C)c2cnc(Nc3ccc(N4CCNCC4)cn3)nc2n(C2CCCC2)c1=O [Palbociclib] (first compound max 10 µM, 7x7, partner max 10 µM)	0.0781	0.04	0.0059	0.0624	-0.0148	0.0696	-0.0096	0.101												
C[C@@H](Oc1cc(-c2cnn(C3CCNCC3)c2)cnc1N)c1c(Cl)ccc(F)c1Cl [Crizotinib] + CC1=C(C(=CC=C1)Cl)NC(=O)C2=CN=C(S2)NC3=CC(=NC(=N3)C)N4CCN(CC4)CCO [Dasatinib] (first compound max 10 µM, 7x7, partner max 2 µM)	-0.0256	-0.0461	-0.0313	0.004	-0.0527	-0.0711	0.06	-0.0926												
CS(=O)(=O)CCNCc1ccc(-c2ccc3ncnc(Nc4ccc(OCc5cccc(F)c5)c(Cl)c4)c3c2)o1 [Lapatinib] + Cn1cnc2c(F)c(Nc3ccc(Br)cc3Cl)c(C(=O)NOCCO)cc21 [Selumetinib] (first compound max 10 µM, 7x7, partner max 10 µM)	-0.0348	-0.0418	0.0224	-0.0027	0.0577	0.0764	-0.0514	0.0681												
CS(=O)(=O)CCNCc1ccc(-c2ccc3ncnc(Nc4ccc(OCc5cccc(F)c5)c(Cl)c4)c3c2)o1 [Lapatinib] + NC1(c2ccc(-c3nc4ccn5c(=O)[nH]nc5c4cc3-c3ccccc3)cc2)CCC1 [MK-2206] (first compound max 10 µM, 7x7, partner max 10 µM)	-0.0031	0.0188	0.014	0.026	0.0563	0.0505	-0.031	0.0833							0.0376		0.0217	-0.0051		
O=C(c1cc(Cc2n[nH]c(=O)c3ccccc23)ccc1F)N1CCN(C(=O)C2CC2)CC1 [Olaparib] + CC1(C)CCC(CN2CCN(c3ccc(C(=O)NS(=O)(=O)c4ccc(NCC5CCOCC5)c([N+](=O)[O-])c4)c(Oc4cnc5[nH]ccc5c4)c3)CC2)=C(c2ccc(Cl)cc2)C1 [Venetoclax] (first compound max 10 µM, 7x7, partner max 1 µM)	-0.0248	-0.0521	-0.0328	0.0557	-0.0483	0.0277	-0.0355	-0.0111												
O=C(c1cc(Cc2n[nH]c(=O)c3ccccc23)ccc1F)N1CCN(C(=O)C2CC2)CC1 [Olaparib] + CN(CC[C@H](CSC1=CC=CC=C1)NC2=C(C=C(C=C2)S(=O)(=O)NC(=O)C3=CC=C(C=C3)N4CCC(CC4)[C@H](C5=CC=CC=C5C6=CC=C(C=C6)Cl)O)S(=O)(=O)C(F)(F)F)CCO [AZD4320] (first compound max 10 µM, 7x7, partner max 1 µM)	-0.0091	-0.0529	-0.049	0.0718	-0.0001	0.0031	-0.0469	0.0073												
O=C(c1cc(Cc2n[nH]c(=O)c3ccccc23)ccc1F)N1CCN(C(=O)C2CC2)CC1 [Olaparib] + Cc1c2c(nn1C)CSCc1cc(n(C)n1)CSc1cc(c3ccccc3c1)OCCCc1c(C(=O)O)n(C)c3c-2c(Cl)ccc13 [AZD5991] (first compound max 10 µM, 7x7, partner max 1 µM)	-0.0264	-0.0585	-0.0494	0.0277	-0.0155	0.0135	-0.0525	-0.0325												
CC(=O)c1c(C)c2cnc(Nc3ccc(N4CCNCC4)cn3)nc2n(C2CCCC2)c1=O [Palbociclib] + CN(CC[C@H](CSC1=CC=CC=C1)NC2=C(C=C(C=C2)S(=O)(=O)NC(=O)C3=CC=C(C=C3)N4CCC(CC4)[C@H](C5=CC=CC=C5C6=CC=C(C=C6)Cl)O)S(=O)(=O)C(F)(F)F)CCO [AZD4320] (first compound max 10 µM, 7x7, partner max 1 µM)	-0.0569	-0.0713							-0.0652	0.0218	0.0102	-0.0184	-0.0143	0.019	-0.0915	-0.0809	-0.014	-0.0715	0.0814	0.0858
CCc1c2c(nc3ccc(O)cc13)-c1cc3c(c(=O)n1C2)COC(=O)[C@]3(O)CC [SN-38] + O=C(c1cc(Cc2n[nH]c(=O)c3ccccc23)ccc1F)N1CCN(C(=O)C2CC2)CC1 [Olaparib] (first compound max 0.3 µM, 7x7, partner max 10 µM)	0.0588	0.117	-0.022	0.0309	0.0367	0.0478	-0.0113	0.0557		0.122		0.0465		0.0934	0.025	0.0726				
CC1(C)CCC(CN2CCN(c3ccc(C(=O)NS(=O)(=O)c4ccc(NCC5CCOCC5)c([N+](=O)[O-])c4)c(Oc4cnc5[nH]ccc5c4)c3)CC2)=C(c2ccc(Cl)cc2)C1 [Venetoclax] + CS(=O)(=O)CCNCc1ccc(-c2ccc3ncnc(Nc4ccc(OCc5cccc(F)c5)c(Cl)c4)c3c2)o1 [Lapatinib] (first compound max 1 µM, 7x7, partner max 10 µM)	-0.0207	-0.0443	-0.0535	-0.0033	0.0085	-0.0243	-0.035	0.0659												
